Like-named read-outs stand apart in the source and are kept apart here.
Molecular target: T1, hM5 (Homo sapiens, UniProt P08912)
T1 construct: expressed in transfected cells
T1 sequence (P08912 1-532): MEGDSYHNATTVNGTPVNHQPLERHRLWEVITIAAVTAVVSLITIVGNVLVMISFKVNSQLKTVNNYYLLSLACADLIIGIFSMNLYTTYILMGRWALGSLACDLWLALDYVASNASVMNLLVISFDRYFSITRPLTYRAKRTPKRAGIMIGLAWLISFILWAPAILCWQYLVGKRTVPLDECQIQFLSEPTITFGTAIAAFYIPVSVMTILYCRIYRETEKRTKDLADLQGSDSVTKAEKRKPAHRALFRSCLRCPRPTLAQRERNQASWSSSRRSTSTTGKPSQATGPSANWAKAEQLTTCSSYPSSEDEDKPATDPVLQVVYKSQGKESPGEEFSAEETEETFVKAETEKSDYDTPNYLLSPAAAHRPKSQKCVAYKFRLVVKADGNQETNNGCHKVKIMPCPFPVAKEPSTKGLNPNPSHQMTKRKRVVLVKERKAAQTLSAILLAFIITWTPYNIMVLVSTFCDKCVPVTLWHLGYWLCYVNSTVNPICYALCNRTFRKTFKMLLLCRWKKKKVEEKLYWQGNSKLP
Experiment: Calcium mobilization concentration-response (IC50 vs EC80 acetylcholine), CHO hM5
Type: cell-based
Conditions: CELL LINE hM5, read-out: IC50
Summary of the method: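 CHO cells stably expressing hM5, dye-loaded, in HBSS/20 mM HEPES/2.5 mM probenecid, pH 7.4. Compounds were pre-incubated 140 s before an EC80 acetylcholine challenge, with calcium flux read kinetically.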

[1] = calcium mobilization, EC80 acetylcholine addition

SMILES | IC50 (vs EC80 acetylcholine) [µM] | IC50 [1] [µM]
Cc1cc2ncnn2cc1C1=CCN(S(=O)(=O)c2ccc3c(c2)C(C)CO3)CC1 (stereo not shown) [Compound 65, 7-Methyl-6-(1-((3-methyl-2,3-dihydrobenzofuran-5-yl)sulfonyl)-1,2,3,6-tetrahydropyridin-4-yl)[1,2,4]triazolo[1,5-a]pyridine] |  | 0.384
Cc1sc(C#N)nc1C1=CCN(S(=O)(=O)c2ccc3c(c2)CCO3)CC1 [Compound 205, 4-(1-((2,3-dihydrobenzofuran-5-yl)sulfonyl)-1,2,3,6-tetrahydropyridin-4-yl)-5-methylthiazole-2-carbonitrile] |  | > 10
Cc1cc2ncnn2cc1[C@@H]1CCN(S(=O)(=O)c2cn(C)nc2C)C[C@H]1F (racemic) [Compound 172, (rac)-6-(trans-1-((1,3-dimethyl-1H-pyrazol-4-yl)sulfonyl)-3-fluoropiperidin-4-yl)-7-methyl-[1,2,4]triazolo[1,5-a]pyridine] |  | 0.275
CN1CCOc2ccc(S(=O)(=O)N3CC=C(c4cc5c(cc4Cl)OCO5)CC3)cc21 [Compound 353, 6-((4-(6-chlorobenzo[d][1,3]dioxol-5-yl)-3,6-dihydropyridin-1(2H)-yl)sulfonyl)-4-methyl-3,4-dihydro-2H-benzo[b][1,4]oxazine] |  | > 10
Cc1ccncc1C1CCN(S(=O)(=O)c2cnn(C)c2C)CC1 [Compound 384, 3-(1-((1,5-dimethyl-1H-pyrazol-4-yl)sulfonyl)piperidin-4-yl)-4-methylpyridine] |  | 5.76
[2H]C1([2H])CC(c2cn3ncnc3cc2Cl)CC([2H])([2H])N1S(=O)(=O)c1cn(C)nn1 [Compound 579, 7-chloro-6-(1-((1-methyl-1H-1,2,3-triazol-4-yl)sulfonyl)piperidin-4-yl-2,2,6,6-d4)-[1,2,4]triazolo[1,5-a]pyridine] | 0.029 | 
Cc1cc2nccn2nc1C1CCN(S(=O)(=O)c2ccc3ncccc3c2)CC1 [Compound 39, 6-((4-(7-methylimidazo[1,2-b]pyridazin-6-yl)piperidin-1-yl)sulfonyl)quinoline] |  | > 10
Cc1cc2nccn2nc1C1CCN(S(=O)(=O)c2cnn(C(F)F)c2C)CC1 [Compound 312, 6-(1-((1-(difluoromethyl)-5-methyl-1H-pyrazol-4-yl)sulfonyl)piperidin-4-yl)-7-methylimidazo[1,2-b]pyridazine] |  | 0.877
O=S(=O)(c1ccc2c(c1)CCO2)N1CC[C@@H](c2cn(-c3ccc4scnc4c3)nn2)C1 [Compound 59, (R)-5-(4-(1-((2,3-Dihydrobenzofuran-5-yl)sulfonyl)pyrrolidin-3-yl)-1H-1,2,3-triazol-1-yl)benzo[d]thiazole] |  | > 10
COc1cc2ncnn2cc1C1CCN(S(=O)(=O)c2ccc3c(c2)C(C)CO3)CC1 (stereo not shown) [Compound 90, 7-methoxy-6-(1-((3-methyl-2,3-dihydrobenzofuran-5-yl)sulfonyl)piperidin-4-yl)-[1,2,4]triazolo[1,5-a]pyridine] |  | 3.1
Cc1cc2ncnn2cc1C1(F)CCN(S(=O)(=O)c2cnn3c2OCCC3)CC1 [Compound 421, 3-((4-fluoro-4-(7-methyl-[1,2,4]triazolo[1,5-a]pyridin-6-yl)piperidin-1-yl)sulfonyl)-6,7-dihydro-5H-pyrazolo[5,1-b][1,3]oxazine] | 0.069 | 
O=S(=O)(c1cnc2ccccn12)N1CCC(c2cn3ncnc3cc2Cl)CC1 [Compound 342, 7-chloro-6-(1-(imidazo[1,2-a]pyridin-3-ylsulfonyl)piperidin-4-yl)-[1,2,4]triazolo[1,5-a]pyridine] |  | 0.015
Cc1cc(S(=O)(=O)N2CCC(c3nn4ccnc4cc3C)CC2)cnc1Cl [Compound 54, 6-(1-((6-chloro-5-methylpyridin-3-yl)sulfonyl)piperidin-4-yl)-7-methylimidazo[1,2-b]pyridazine] |  | > 10
[2H]C([2H])([2H])n1ncc(S(=O)(=O)N2CCC(c3cn4ncnc4cc3C)CC2)c1C1CC1 [Compound 131, 6-(1-((5-cyclopropyl-1-(methyl-d3)-1H-pyrazol-4-yl)sulfonyl)piperidin-4-yl)-7-methyl-[1,2,4]triazolo[1,5-a]pyridine] |  | 0.028

Now from value to compound:

IC50 (vs EC80 acetylcholine) [µM] | IC50 [1] [µM] | SMILES
0.067 |  | COc1c(S(=O)(=O)N2CCC(c3cn4ncnc4cc3C(F)(F)F)CC2)cnn1C [Compound 585, 6-(1-((5-methoxy-1-methyl-1H-pyrazol-4-yl)sulfonyl)piperidin-4-yl)-7-(trifluoromethyl)-[1,2,4]triazolo[1,5-a]pyridine]
 | > 10 | [2H]C1([2H])Oc2cc(C)c(C3CCN(S(=O)(=O)c4cnc(C)s4)CC3)cc2OC1([2H])[2H] [Compound 392, 2-methyl-5-((4-(7-methyl-2,3-dihydrobenzo[b][1,4]dioxin-6-yl-2,2,3,3-d4)piperidin-1-yl)sulfonyl)thiazole]
 | 4.62 | Cc1ccncc1C1CCN(S(=O)(=O)c2cnn3c2OCCC3)CC1 [Compound 386, 3-((4-(4-methylpyridin-3-yl)piperidin-1-yl)sulfonyl)-6,7-dihydro-5H7-pyrazolo[5,1-b][1,3]oxazine]
0.303 |  | Cc1cc2ccnn2cc1C1CCN(S(=O)(=O)c2cnn(C)c2C#N)CC1 [Compound 481, 1-methyl-4-((4-(5-methylpyrazolo[1,5-a]pyridin-6-yl)piperidin-1-yl)sulfonyl)-1-pyrazole-5-carbonitrile]
0.019 |  | COc1c(S(=O)(=O)N2CCC(c3cn4ncnc4c(F)c3C)CC2)cnn1C [Compound 576, 8-fluoro-6-(1-((5-methoxy-1-methyl-1H-pyrazol-4-yl)sulfonyl)piperidin-4-yl)-7-methyl-[1,2,4]triazolo[1,5-a]pyridine]
 | 1.5 | Cc1cc2nccn2nc1C1CCN(S(=O)(=O)c2ccc3c(c2)N(C)CCO3)CC1 [Compound 250, 4-methyl-6-((4-(7-methylimidazo[1,2-b]pyridazin-6-yl)piperidin-1-yl)sulfonyl)-3,4-dihydro-2H-benzo[b][1,4]oxazine]
0.043 |  | [2H]C1([2H])CC(c2cn3ncnc3cc2Cl)CC([2H])([2H])N1S(=O)(=O)c1cnn(C)c1CC#N [Compound 621, 2-(4-((4-(7-chloro-[1,2,4]triazolo[1,5-a]pyridin-6-yl)piperidin-1-yl-2,2,6,6-d4)sulfonyl)-1-methyl-1H-pyrazol-5-yl)acetonitrile]
0.011 |  | [2H]C1([2H])CC(c2cn3ncnc3c(F)c2C)CC([2H])([2H])N1S(=O)(=O)c1cnc2sccn12 [Compound 537, 5-((4-(8-fluoro-7-methyl-[1,2,4]triazolo[1,5-a]pyridin-6-yl)piperidin-1-yl-2,2,6,6-d4)sulfonyl)imidazo[2,1-b]thiazole]
4.51 |  | Cc1cc2ncnn2cc1C1CCN(S(=O)(=O)c2conc2C)CC1 [Compound 499, 3-methyl-4-((4-(7-methyl-[1,2,4]triazolo[1,5-a]pyridin-6-yl)piperidin-1-yl)sulfonyl)isoxazole]
 | 0.786 | Cc1c(S(=O)(=O)N2CC=C(c3cn4ncnc4cc3C3CC3)CC2)cnn1C [Compound 148, 7-cyclopropyl-6-(1-((1,5-dimethyl-1H-pyrazol-4-yl)sulfonyl)-1,2,3,6-tetrahydropyridin-4-yl)-[1,2,4]triazolo[1,5-a]pyridine]
 | > 10 | COc1ccc(S(=O)(=O)N2CCC(c3nn4ccnc4cc3C)CC2)cn1 [Compound 42, 6-(1-((6-methoxypyridin-3-yl)sulfonyl)piperidin-4-yl)-7-methylimidazo[1,2-b]pyridazine]

Source: patent US20230183237A1, “COMPETITIVE AND NONCOMPETITIVE INHIBITORS OF THE MUSCARINIC ACETYLCHOLINE RECEPTOR M5” (Vanderbilt University, priority 2020, published 2023)
